Laboratory results as given in patent US6525001B1, “Substituted pyrimidine and pyridine herbicides” (Mid-American Commercialization Corporation, priority 1997, dated 2003).

Assays:
Type in all cases: in vivo
[1] = tested on: guineagrass (Panicum maximum); experiment: Test E pre-/postemergence/post directed; set-up: key: 0 is no effect; 100 is complete control
Description: (§1) Seeds, tubers, or plant parts of alexandergrass (Brachiaria plantaginea), annual bluegrass (Poa annua), arrowleaf sida (Sida rhombifolia), barnyardgrass (Echinochloa crus-galli), bermudagrass (Cynodon dactylon), citrus (Citrus sinensis), common chickweed (Stellaria media), common purslane (Portulaca oleracea), common ragweed (Ambrosia elatior), common groundsel (Senecio vulgaris), dallisgrass (Paspalum dilatatum), goosegrass (Eleusine indica), green foxtail (Setaria viridis), guineagrass (Panicum maximum), itchgrass (Rottboellia exaltata), johnson grass (Sorghum halepense), kochia (Kochia scoparia), large crabgrass (Digitaria sanguinalis), leafy spurge (Euphorbia esula), pitted morningglory (Ipomoea lacunosa), purple nutsedge (Cyperus rotundus), quackgrass (Agropyron repens), Russian thistle (Salsola kali), sandbur (Cenchrus echinatus), sourgrass (Trichachne insularis), Spanishneedles (Bidens bipinnata), sugarcane (Saccharum officinarum), surinam grass (Brachiaria decumbens) and tall mallow (Malva sylvestris) were planted into greenhouse pots of flats containing greenhouse planting medium. Plant species were grown grown in separate pots or individual compartments. Preemergence applications were made within one day of planting the seed or plant part. Postemergence applications were applied when the plants were in the two to four leaf stage (three to twenty cm).
(§2) Test chemicals were formulated in a non-phytotoxic solvent mixture which included a surfactant and applied preemergence to the soil surface, postemergence to the plants or as a post directed spray to plants and soil at the base of the target species. Untreated control plants and treated plants were placed in the greenhouse and visually evaluated for injury 13 to 21 days after herbicide application. Plant response ratings, summarized in Table E, are based on a 0 to 100 scale where 0 is no injury and 100 is complete control. A dash (−) response means no test result.

[2] = tested on: dallisgrass (Paspalum dilatatum); experiment: Test E pre-/postemergence/post directed; set-up: key: 0 is no effect; 100 is complete control
Description: as §1, §2

[3] = tested on: tall mallow (Malva sylvestris); experiment: Test E pre-/postemergence/post directed; set-up: key: 0 is no effect; 100 is complete control; details: PREEMERGENCE
Description: as §1, §2

[4] = tested on: common ragweed (Ambrosia elatior); experiment: Test E pre-/postemergence/post directed; set-up: key: 0 is no effect; 100 is complete control; details: PREEMERGENCE, Rate 250 g/ha
Description: as §1, §2

[5] = tested on: goosegrass (Eleusine indica); experiment: Test E pre-/postemergence/post directed; set-up: key: 0 is no effect; 100 is complete control
Description: as §1, §2

[6] = tested on: sourgrass (Trichachne insularis); experiment: Test E pre-/postemergence/post directed; set-up: key: 0 is no effect; 100 is complete control
Description: as §1, §2

[7] = tested on: common purslane (Portulaca oleracea); experiment: Test E pre-/postemergence/post directed; set-up: key: 0 is no effect; 100 is complete control
Description: as §1, §2

[8] = tested on: bermudagrass (Cynodon dactylon); experiment: Test E pre-/postemergence/post directed; set-up: key: 0 is no effect; 100 is complete control; details: PREEMERGENCE, Rate 250 g/ha
Description: as §1, §2

[9] = tested on: common groundsel (Senecio vulgaris); experiment: Test E pre-/postemergence/post directed; set-up: key: 0 is no effect; 100 is complete control; details: PREEMERGENCE
Description: as §1, §2

[10] = tested on: velvetleaf (Abutilon theophrasti); experiment: Test A pre-/postemergence; set-up: key: 0 is no effect; 10 is complete control; details: 0 to 10 scale
[11] = tested on: barnyardgrass (Echinochloa crus-galli); experiment: Test A pre-/postemergence; set-up: key: 0 is no effect; 10 is complete control; details: 0 to 10 scale
[12] = tested on: crabgrass (Digitaria spp.); experiment: Test A pre-/postemergence; set-up: key: 0 is no effect; 10 is complete control; details: 0 to 10 scale
[13] = tested on: large crabgrass (Digitaria sanguinalis); experiment: Test C; set-up: key: 0 was no effect; 100 was complete control; details: PREEMERGENCE
[14] = tested on: arrowleaf sida (Sida rhombifolia); experiment: Test C; set-up: key: 0 was no effect; 100 was complete control; details: PREEMERGENCE
[15] = PRE SOIL DRENCH, Rate 2000 g/ha
[16] = postemergence SPRAYED TO RUNOFF, Rate 1000 g/ha

Cc1cnc(-n2cnc(C(F)(F)F)c2)nc1Cc1cccc(C(F)(F)F)c1 [Compound 44]
Plant response rating, Guineagrass ([1]; POSTEMERGENCE, Rate 125 g/ha): 85 | Plant response rating, Guineagrass ([1]; POSTEMERGENCE, Rate 250 g/ha): 85 | Plant response rating, Guineagrass ([1]; PREEMERGENCE, Rate 32 g/ha): 20 | Plant response rating, Guineagrass ([1]; PREEMERGENCE, Rate 64 g/ha): 80 | Plant response rating, Guineagrass ([1]; PREEMERGENCE, Rate 125 g/ha): 100 | Plant response rating, Guineagrass ([1]; PREEMERGENCE, Rate 250 g/ha): 100 | Plant response rating, Dallisgrass ([2]; POSTEMERGENCE, Rate 125 g/ha): 10 | Plant response rating, Dallisgrass ([2]; POSTEMERGENCE, Rate 250 g/ha): 10 | Plant response rating, Dallisgrass ([2]; PREEMERGENCE, Rate 32 g/ha): 65 | Plant response rating, Dallisgrass ([2]; PREEMERGENCE, Rate 64 g/ha): 80 | Plant response rating, Dallisgrass ([2]; PREEMERGENCE, Rate 125 g/ha): 90 | Plant response rating, Dallisgrass ([2]; PREEMERGENCE, Rate 250 g/ha): 100 | Plant response rating, Tall Mallow ([3]; Rate 32 g/ha): 80 | Plant response rating, Tall Mallow ([3]; Rate 64 g/ha): 80 | Plant response rating, Tall Mallow ([3]; Rate 125 g/ha): 98 | Plant response rating, Tall Mallow ([3]; Rate 250 g/ha): 98 | Plant response rating, Com. ragweed [4]: 100 | Plant response rating, Goosegrass ([5]; POSTEMERGENCE, Rate 125 g/ha): 10 | Plant response rating, Goosegrass ([5]; POSTEMERGENCE, Rate 250 g/ha): 20 | Plant response rating, Goosegrass ([5]; PREEMERGENCE, Rate 32 g/ha): 98 | Plant response rating, Goosegrass ([5]; PREEMERGENCE, Rate 64 g/ha): 98 | Plant response rating, Goosegrass ([5]; PREEMERGENCE, Rate 125 g/ha): 98 | Plant response rating, Goosegrass ([5]; PREEMERGENCE, Rate 250 g/ha): 100 | Plant response rating, Sourgrass ([6]; POSTEMERGENCE, Rate 125 g/ha): 10 | Plant response rating, Sourgrass ([6]; POSTEMERGENCE, Rate 250 g/ha): 20 | Plant response rating, Sourgrass ([6]; PREEMERGENCE, Rate 32 g/ha): 80 | Plant response rating, Sourgrass ([6]; PREEMERGENCE, Rate 64 g/ha): 100 | Plant response rating, Sourgrass ([6]; PREEMERGENCE, Rate 125 g/ha): 100 | Plant response rating, Sourgrass ([6]; PREEMERGENCE, Rate 250 g/ha): 100 | Plant response rating, Com. purslane ([7]; POSTEMERGENCE, Rate 125 g/ha): 70 | Plant response rating, Com. purslane ([7]; POSTEMERGENCE, Rate 250 g/ha): 70 | Plant response rating, Com. purslane ([7]; PREEMERGENCE, Rate 32 g/ha): 80 | Plant response rating, Com. purslane ([7]; PREEMERGENCE, Rate 64 g/ha): 100 | Plant response rating, Com. purslane ([7]; PREEMERGENCE, Rate 125 g/ha): 100 | Plant response rating, Com. purslane ([7]; PREEMERGENCE, Rate 250 g/ha): 100 | Plant response rating, Bermudagrass [8]: 100 | Plant response rating, Com. groundsel ([9]; Rate 64 g/ha): 100 | Plant response rating, Com. groundsel ([9]; Rate 125 g/ha): 100 | Plant response rating, Com. groundsel ([9]; Rate 250 g/ha): 100

Cc1cnc(-n2ccc(C(F)(F)F)n2)nc1C(=O)c1cccc(C(F)(F)F)c1 [Compound 59]
Plant response rating, Velvetleaf [10, 15]: 10 | Plant response rating, Velvetleaf [10, 16]: 9 | Plant response rating, Barnyardgrass [11, 15]: 10 | Plant response rating, Barnyardgrass [11, 16]: 9 | Plant response rating, Crabgrass [12, 15]: 10 | Plant response rating, Crabgrass [12, 16]: 9

Cc1cnc(-n2ccc(C(F)(F)F)n2)nc1C(=O)c1ccc(C(F)(F)F)cc1 [Compound 65]
Plant response rating, Velvetleaf [10, 15]: 4 | Plant response rating, Velvetleaf [10, 16]: 5 | Plant response rating, Barnyardgrass [11, 15]: 5 | Plant response rating, Barnyardgrass [11, 16]: 4 | Plant response rating, Crabgrass [12, 15]: 8 | Plant response rating, Crabgrass [12, 16]: 5

Cc1cnc(-n2ccc(C(F)(F)F)n2)nc1C(=O)c1cccc(OC(F)(F)F)c1 [Compound 66]
Plant response rating, Large crabgrass ([13]; Rate 35 g/ha): 80 | Plant response rating, Large crabgrass ([13]; Rate 70 g/ha): 100 | Plant response rating, Large crabgrass ([13]; Rate 140 g/ha): 100 | Plant response rating, Arrowleaf sida ([14]; Rate 35 g/ha): 5 | Plant response rating, Arrowleaf sida ([14]; Rate 70 g/ha): 5 | Plant response rating, Arrowleaf sida ([14]; Rate 140 g/ha): 100

Cc1cnc(-c2ccc(C(F)(F)F)cc2)nc1C(=O)c1cccc(C(F)(F)F)c1 [Compound 73]
Plant response rating, Velvetleaf [10, 15]: 9 | Plant response rating, Velvetleaf [10, 16]: 9 | Plant response rating, Barnyardgrass [11, 15]: 9 | Plant response rating, Barnyardgrass [11, 16]: 8 | Plant response rating, Crabgrass [12, 15]: 10 | Plant response rating, Crabgrass [12, 16]: 9

Cc1cnc(-c2ccc(C(F)(F)F)cc2)nc1C(=O)c1ccc(C(F)(F)F)cc1 [Compound 74]
Plant response rating, Velvetleaf [10, 15]: 4 | Plant response rating, Velvetleaf [10, 16]: 5 | Plant response rating, Barnyardgrass [11, 15]: 1 | Plant response rating, Barnyardgrass [11, 16]: 5 | Plant response rating, Crabgrass [12, 15]: 7 | Plant response rating, Crabgrass [12, 16]: 8
